Results as given in ChEMBL document CHEMBL4330132, “5-Keto-3-cyano-2,4-diaminothiophenes as selective maternal embryonic leucine zipper kinase inhibitors” (Bioorg Med Chem Lett, 2019).

Columns and labels:
[1] = molecular target: Serine/threonine-protein kinase PAK 3 (Homo sapiens) (UniProt O75914); assay: Binding affinity to wild-type human full length PAK3 (M1 to R544 residues) expressed in bacterial expression system assessed as residual binding level at 1 uM by Kinomescan method relative to control
[2] = molecular target: Activin receptor type-1 (Homo sapiens) (UniProt Q04771); assay: Binding affinity to wild-type human ACVR1 (C188 to C509 residues) expressed in bacterial expression system assessed as residual binding level at 1 uM by Kinomescan method relative to control
[3] = molecular target: Receptor-type tyrosine-protein kinase FLT3 (Homo sapiens) (UniProt P36888); assay: Binding affinity to wild-type human partial length FLT3 (V592 to Y969 residues) expressed in bacterial expression system assessed as residual binding level at 1 uM by Kinomescan method relative to control
[4] = molecular target: Mitogen-activated protein kinase kinase kinase 9 (Homo sapiens) (UniProt P80192); assay: Binding affinity to wild-type human partial length MLK1 (V88 to W426 residues) expressed in bacterial expression system assessed as residual binding level at 1 uM by Kinomescan method relative to control
Sequence of Mitogen-activated protein kinase kinase kinase 9 (Homo sapiens) (P80192 whole entry, looked up, the tested form may be a part): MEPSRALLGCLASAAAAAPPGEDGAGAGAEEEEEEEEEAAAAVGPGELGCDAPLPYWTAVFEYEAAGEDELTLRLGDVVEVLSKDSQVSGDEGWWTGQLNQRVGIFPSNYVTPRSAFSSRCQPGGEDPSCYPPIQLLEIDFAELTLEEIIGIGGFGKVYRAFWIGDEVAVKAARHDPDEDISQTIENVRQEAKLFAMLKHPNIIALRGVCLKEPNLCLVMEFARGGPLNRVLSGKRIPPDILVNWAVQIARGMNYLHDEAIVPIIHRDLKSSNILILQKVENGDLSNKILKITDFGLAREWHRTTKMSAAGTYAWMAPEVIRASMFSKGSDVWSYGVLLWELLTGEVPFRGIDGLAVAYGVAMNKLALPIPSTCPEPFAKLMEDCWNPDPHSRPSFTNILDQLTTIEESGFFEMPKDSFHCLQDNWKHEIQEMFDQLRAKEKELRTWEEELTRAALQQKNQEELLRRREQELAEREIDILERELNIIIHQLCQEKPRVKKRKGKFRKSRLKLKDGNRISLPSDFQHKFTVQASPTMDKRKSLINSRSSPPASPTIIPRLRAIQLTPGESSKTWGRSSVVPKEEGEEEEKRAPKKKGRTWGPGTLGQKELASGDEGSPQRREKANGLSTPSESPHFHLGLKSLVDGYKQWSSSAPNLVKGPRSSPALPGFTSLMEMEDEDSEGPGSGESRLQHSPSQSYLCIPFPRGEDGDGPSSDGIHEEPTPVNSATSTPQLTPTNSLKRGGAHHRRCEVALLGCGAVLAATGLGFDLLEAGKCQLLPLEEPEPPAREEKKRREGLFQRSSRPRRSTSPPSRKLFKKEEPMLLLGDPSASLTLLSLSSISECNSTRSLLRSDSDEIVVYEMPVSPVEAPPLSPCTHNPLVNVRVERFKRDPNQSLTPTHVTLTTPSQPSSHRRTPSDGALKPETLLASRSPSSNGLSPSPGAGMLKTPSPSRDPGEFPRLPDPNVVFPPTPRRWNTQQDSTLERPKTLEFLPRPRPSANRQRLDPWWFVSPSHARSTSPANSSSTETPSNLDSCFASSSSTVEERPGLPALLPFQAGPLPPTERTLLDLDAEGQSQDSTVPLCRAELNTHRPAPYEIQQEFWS

[5] = molecular target: Tyrosine-protein kinase Blk (Homo sapiens) (UniProt P51451); assay: Binding affinity to wild-type human partial length BLK (G211 to L503 residues) expressed in bacterial expression system assessed as residual binding level at 1 uM by Kinomescan method relative to control
[6] = molecular target: Serine/threonine-protein kinase MARK2 (Homo sapiens) (UniProt Q7KZI7); assay: Binding affinity to wild-type human partial length MARK2 (M1 to R450 residues) expressed in bacterial expression system assessed as residual binding level at 1 uM by Kinomescan method relative to control
[7] = molecular target: Serine/threonine-protein kinase 33 (Homo sapiens) (UniProt Q9BYT3); assay: Binding affinity to wild-type human full length STK33 (M1 to L514 residues) expressed in bacterial expression system assessed as residual binding level at 1 uM by Kinomescan method relative to control
Sequence of Serine/threonine-protein kinase 33 (Homo sapiens) (Q9BYT3 whole entry, looked up, the tested form may be a part): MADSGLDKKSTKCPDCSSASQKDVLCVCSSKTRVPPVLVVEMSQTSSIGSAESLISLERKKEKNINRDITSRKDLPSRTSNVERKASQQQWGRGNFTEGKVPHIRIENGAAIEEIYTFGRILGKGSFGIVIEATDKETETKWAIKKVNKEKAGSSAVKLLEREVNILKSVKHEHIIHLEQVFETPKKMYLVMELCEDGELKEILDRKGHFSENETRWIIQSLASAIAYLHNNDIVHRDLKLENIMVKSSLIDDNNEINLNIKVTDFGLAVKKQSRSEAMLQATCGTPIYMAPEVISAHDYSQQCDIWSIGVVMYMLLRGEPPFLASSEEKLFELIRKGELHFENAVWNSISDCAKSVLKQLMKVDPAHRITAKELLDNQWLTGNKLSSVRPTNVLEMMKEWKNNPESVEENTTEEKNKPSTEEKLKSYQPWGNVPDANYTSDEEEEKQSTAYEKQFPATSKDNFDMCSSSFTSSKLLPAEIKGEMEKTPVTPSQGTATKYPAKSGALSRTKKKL

[8] = molecular target: Inhibitor of nuclear factor kappa-B kinase subunit beta (Homo sapiens) (UniProt O14920); assay: Binding affinity to wild-type human full length IKK-beta (M1 to S756 residues) expressed in mammalian expression system assessed as residual binding level at 1 uM by Kinomescan method relative to control
Sequence of Inhibitor of nuclear factor kappa-B kinase subunit beta (Homo sapiens) (O14920 whole entry, the tested form may be a part): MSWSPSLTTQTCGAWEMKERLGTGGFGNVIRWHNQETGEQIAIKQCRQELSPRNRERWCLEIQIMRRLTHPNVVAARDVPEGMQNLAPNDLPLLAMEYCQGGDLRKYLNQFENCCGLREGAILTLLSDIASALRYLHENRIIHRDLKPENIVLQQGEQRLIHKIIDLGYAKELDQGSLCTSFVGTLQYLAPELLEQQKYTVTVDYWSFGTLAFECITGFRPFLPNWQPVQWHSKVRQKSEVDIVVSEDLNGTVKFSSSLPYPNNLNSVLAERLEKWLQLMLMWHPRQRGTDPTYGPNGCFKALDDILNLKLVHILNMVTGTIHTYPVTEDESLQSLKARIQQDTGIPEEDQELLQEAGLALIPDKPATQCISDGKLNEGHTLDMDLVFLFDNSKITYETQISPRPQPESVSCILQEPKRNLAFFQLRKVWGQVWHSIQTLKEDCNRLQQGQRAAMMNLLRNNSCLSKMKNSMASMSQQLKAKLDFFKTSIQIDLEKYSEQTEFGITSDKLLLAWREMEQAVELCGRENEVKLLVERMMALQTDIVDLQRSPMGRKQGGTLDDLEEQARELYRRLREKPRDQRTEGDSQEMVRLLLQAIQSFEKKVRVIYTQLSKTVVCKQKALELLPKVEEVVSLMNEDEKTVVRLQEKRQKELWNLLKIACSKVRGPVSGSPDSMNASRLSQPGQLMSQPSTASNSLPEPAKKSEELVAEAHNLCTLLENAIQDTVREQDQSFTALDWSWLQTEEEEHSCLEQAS

[9] = molecular target: Ribosomal protein S6 kinase alpha-5 (Homo sapiens) (UniProt O75582); assay: Binding affinity to wild-type human partial length C-terminal RPS6KA5 kinase domain 2 (V390 to T718 residues) expressed in bacterial expression system assessed as residual binding level at 1 uM by Kinomescan method relative to control
Sequence of Ribosomal protein S6 kinase alpha-5 (Homo sapiens) (O75582 whole entry, looked up, the tested form may be a part): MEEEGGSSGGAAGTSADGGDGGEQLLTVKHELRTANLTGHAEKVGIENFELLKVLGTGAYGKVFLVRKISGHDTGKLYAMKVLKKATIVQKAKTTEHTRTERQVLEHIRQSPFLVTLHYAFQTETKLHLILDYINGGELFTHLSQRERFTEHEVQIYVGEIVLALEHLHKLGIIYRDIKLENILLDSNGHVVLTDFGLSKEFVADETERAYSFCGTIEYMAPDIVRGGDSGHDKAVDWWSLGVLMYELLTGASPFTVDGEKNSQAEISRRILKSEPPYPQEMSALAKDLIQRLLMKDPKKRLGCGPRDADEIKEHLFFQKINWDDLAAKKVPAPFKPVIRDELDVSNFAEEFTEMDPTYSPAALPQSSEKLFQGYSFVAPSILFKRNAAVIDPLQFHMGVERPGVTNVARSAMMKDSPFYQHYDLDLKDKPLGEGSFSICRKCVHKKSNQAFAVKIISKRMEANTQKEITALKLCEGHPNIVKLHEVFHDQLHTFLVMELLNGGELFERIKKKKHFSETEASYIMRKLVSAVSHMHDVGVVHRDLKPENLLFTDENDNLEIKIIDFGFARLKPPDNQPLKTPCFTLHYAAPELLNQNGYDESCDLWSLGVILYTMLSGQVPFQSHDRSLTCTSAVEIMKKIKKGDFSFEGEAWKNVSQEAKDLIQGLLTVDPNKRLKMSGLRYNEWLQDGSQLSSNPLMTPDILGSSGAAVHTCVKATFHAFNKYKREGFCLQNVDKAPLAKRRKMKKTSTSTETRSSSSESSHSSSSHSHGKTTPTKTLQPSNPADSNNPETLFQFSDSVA

[10] = molecular target: Tyrosine-protein kinase Yes (Homo sapiens) (UniProt P07947); assay: Binding affinity to wild-type human partial length YES (T257 to L543 residues) expressed in bacterial expression system assessed as residual binding level at 1 uM by Kinomescan method relative to control
[11] = system: Tyrosine-protein kinase ABL1 (Homo sapiens), P00519 [H396P]; assay: Binding affinity to human phosphorylated ABL1 H396P mutant (S229 to K512 residues) expressed in mammalian expression system assessed as residual binding level at 1 uM by Kinomescan method relative to control
[12] = molecular target: Serine/threonine-protein kinase pim-2 (Homo sapiens) (UniProt Q9P1W9); assay: Binding affinity to wild-type human partial length PIM2 (M1 to E291 residues) expressed in bacterial expression system assessed as residual binding level at 1 uM by Kinomescan method relative to control
[13] = molecular target: Dual specificity testis-specific protein kinase 1 (Homo sapiens) (UniProt Q15569); assay: Binding affinity to wild-type human full length TESK1 (R37 to S626 residues) expressed in bacterial expression system assessed as residual binding level at 1 uM by Kinomescan method relative to control
[14] = molecular target: Ribosomal protein S6 kinase alpha-5 (Homo sapiens) (UniProt O75582); assay: Binding affinity to wild-type human partial length N-terminal RPS6KA5 kinase domain 1 expressed in bacterial expression system assessed as residual binding level at 1 uM by Kinomescan method relative to control
[15] = system: Receptor-type tyrosine-protein kinase FLT3 (Homo sapiens), P36888 [UNDEFINED MUTATION]; assay: Binding affinity to human partial length FLT3 ITD mutant expressed in bacterial expression system assessed as residual binding level at 1 uM by Kinomescan method relative to control
[16] = system: Phosphatidylinositol 4,5-bisphosphate 3-kinase catalytic subunit alpha isoform (Homo sapiens), P42336 [I800L]; assay: Binding affinity to human partial length PIK3CA I800L mutant (R108 to N1068 residues) expressed in mammalian expression system assessed as residual binding level at 1 uM by Kinomescan method relative to control
[17] = system: Receptor-type tyrosine-protein kinase FLT3 (Homo sapiens), P36888 [D835H]; assay: Binding affinity to human partial length FLT3 D835H mutant (V592 to Y969 residues) expressed in bacterial expression system assessed as residual binding level at 1 uM by Kinomescan method relative to control
[18] = molecular target: SNF-related serine/threonine-protein kinase (Homo sapiens) (UniProt Q9NRH2); assay: Binding affinity to wild-type human partial length SNRK (M1 to E339 residues) expressed in mammalian expression system assessed as residual binding level at 1 uM by Kinomescan method relative to control
Sequence of SNF-related serine/threonine-protein kinase (Homo sapiens) (Q9NRH2 whole entry, the tested form may be a part): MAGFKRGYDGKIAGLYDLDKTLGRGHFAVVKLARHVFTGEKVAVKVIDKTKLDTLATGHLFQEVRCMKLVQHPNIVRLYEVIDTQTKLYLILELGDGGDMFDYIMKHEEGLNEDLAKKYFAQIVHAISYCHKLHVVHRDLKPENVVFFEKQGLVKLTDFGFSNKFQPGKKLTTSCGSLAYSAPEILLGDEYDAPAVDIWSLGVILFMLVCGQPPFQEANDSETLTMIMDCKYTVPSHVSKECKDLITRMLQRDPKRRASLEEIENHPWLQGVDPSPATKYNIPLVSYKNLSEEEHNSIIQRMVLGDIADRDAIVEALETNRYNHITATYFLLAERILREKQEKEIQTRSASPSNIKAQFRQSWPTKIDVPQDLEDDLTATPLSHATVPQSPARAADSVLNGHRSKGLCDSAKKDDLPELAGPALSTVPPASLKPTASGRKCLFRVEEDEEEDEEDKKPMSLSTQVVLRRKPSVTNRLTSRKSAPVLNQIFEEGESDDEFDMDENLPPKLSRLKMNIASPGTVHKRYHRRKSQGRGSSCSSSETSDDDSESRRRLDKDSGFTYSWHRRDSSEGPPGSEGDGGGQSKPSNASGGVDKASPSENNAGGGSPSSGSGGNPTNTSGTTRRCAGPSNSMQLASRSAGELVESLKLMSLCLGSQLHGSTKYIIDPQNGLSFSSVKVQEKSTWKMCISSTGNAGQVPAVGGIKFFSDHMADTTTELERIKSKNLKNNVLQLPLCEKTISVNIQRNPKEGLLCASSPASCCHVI

[19] = molecular target: Ephrin type-B receptor 1 (Homo sapiens) (UniProt P54762); assay: Binding affinity to wild-type human partial length EPHB1 (P589 to T911 residues) expressed in bacterial expression system assessed as residual binding level at 1 uM by Kinomescan method relative to control
[20] = molecular target: Serine/threonine-protein kinase D1 (Homo sapiens) (UniProt Q15139); assay: Binding affinity to wild-type human partial length PRKD1 (G551 to E870 residues) expressed in bacterial expression system assessed as residual binding level at 1 uM by Kinomescan method relative to control
[21] = system: Phosphatidylinositol 4,5-bisphosphate 3-kinase catalytic subunit alpha isoform (Homo sapiens), P42336 [H1047L]; assay: Binding affinity to human partial length PIK3CA H1047L mutant (R108 to N1068 residues) expressed in mammalian expression system assessed as residual binding level at 1 uM by Kinomescan method relative to control
Sequence of Phosphatidylinositol 4,5-bisphosphate 3-kinase catalytic subunit alpha isoform (Homo sapiens), P42336 [H1047L] (P42336 whole entry H1047L, the tested form may be a part, canonical isoform): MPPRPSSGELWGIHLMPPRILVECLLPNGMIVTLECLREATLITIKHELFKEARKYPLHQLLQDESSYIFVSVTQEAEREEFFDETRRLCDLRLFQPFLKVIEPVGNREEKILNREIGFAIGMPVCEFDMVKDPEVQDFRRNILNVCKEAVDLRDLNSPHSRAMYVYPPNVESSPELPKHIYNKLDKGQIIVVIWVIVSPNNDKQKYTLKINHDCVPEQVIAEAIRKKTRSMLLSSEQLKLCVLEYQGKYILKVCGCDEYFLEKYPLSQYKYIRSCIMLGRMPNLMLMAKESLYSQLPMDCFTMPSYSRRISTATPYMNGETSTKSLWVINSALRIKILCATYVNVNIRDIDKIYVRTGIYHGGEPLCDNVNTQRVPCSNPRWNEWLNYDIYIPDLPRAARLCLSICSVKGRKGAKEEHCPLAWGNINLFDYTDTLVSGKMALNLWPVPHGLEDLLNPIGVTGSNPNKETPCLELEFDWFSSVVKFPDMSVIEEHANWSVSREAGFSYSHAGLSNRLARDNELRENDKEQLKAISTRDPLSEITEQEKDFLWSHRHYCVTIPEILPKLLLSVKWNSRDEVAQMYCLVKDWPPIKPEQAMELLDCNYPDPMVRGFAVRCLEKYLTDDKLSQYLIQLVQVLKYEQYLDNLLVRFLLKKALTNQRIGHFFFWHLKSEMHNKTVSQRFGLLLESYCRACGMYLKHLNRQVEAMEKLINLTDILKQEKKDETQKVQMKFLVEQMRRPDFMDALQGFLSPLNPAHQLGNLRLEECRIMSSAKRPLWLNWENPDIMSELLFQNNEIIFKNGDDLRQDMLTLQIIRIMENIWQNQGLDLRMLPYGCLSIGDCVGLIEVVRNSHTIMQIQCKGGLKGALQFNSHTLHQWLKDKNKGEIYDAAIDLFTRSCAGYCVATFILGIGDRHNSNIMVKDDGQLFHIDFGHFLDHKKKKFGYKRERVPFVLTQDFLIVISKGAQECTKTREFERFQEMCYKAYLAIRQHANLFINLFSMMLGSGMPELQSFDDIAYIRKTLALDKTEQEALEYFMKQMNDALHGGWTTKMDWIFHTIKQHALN

[22] = molecular target: Mitogen-activated protein kinase 15 (Homo sapiens) (UniProt Q8TD08); assay: Binding affinity to wild-type human partial length ERK8 (M1 to P437 residues) expressed in bacterial expression system assessed as residual binding level at 1 uM by Kinomescan method relative to control
[23] = molecular target: STE20-like serine/threonine-protein kinase (Homo sapiens) (UniProt Q9H2G2); assay: Binding affinity to wild-type human partial length SLK (S14 to A307 residues) expressed in bacterial expression system assessed as residual binding level at 1 uM by Kinomescan method relative to control
[24] = molecular target: Dual specificity tyrosine-phosphorylation-regulated kinase 2 (Homo sapiens) (UniProt Q92630); assay: Binding affinity to wild-type human full length DYRK2 (M1 to S528 residues) expressed in mammalian expression system assessed as residual binding level at 1 uM by Kinomescan method relative to control

`CC(C)Nc1sc(C(=O)c2ccc(Cl)s2)c(N)c1C#N` showed an Activity [1] of 95%, an Activity [2] of 47% and an Activity [3] of 93%. It also gave an Activity [4] of 98%, an Activity [5] of 60% and an Activity [6] of 91%. It also gave an Activity [7] of 57%, an Activity [8] of 100% and an Activity [9] of 77%. For the same molecule, the Activity [10] was 56%, the Activity [11] was 100% and the Activity [12] was 100%. It also gave an Activity [13] of 94%, an Activity [14] of 92% and an Activity [15] of 77%. The Activity [16] was 73%, the Activity [17] was 60% and the Activity [18] was 91%. The Activity [19] was 96%, the Activity [20] was 97% and the Activity [21] was 99%. For the same molecule, the Activity [22] was 82%, the Activity [23] was 96% and the Activity [24] was 100%.
